Test results reported in patent US10988523B2, “Modified lipidated Relaxin B chain peptides and their therapeutic use” (Sanofi, priority 2018, dated 2021).
*1 amine or outer side, *2 acyl side, *3 side chain or, on linkers, in order; H or OH if unused. Where a SMILES comes first, the peptide text is derived from it. Side-chain parts run from the residue outwards. [ ]: non-standard residue; d: D form. The star is where a group is joined. γGlu = O=C(O)[C@H](CCC(=O)[*:2])N[*:1]; Stearoyl = CCCCCCCCCCCCCCCCCC(=O)*; Palmitoyl = CCCCCCCCCCCCCCCC(=O)*; αMeK = C[C@](N)(CCCCN)C(=O)O; Nle = CCCC[C@H](N)C(=O)O; AEEA = NCCOCCOCC(=O)O; Aib = CC(C)(N)C(=O)O

Target: T1, RXFP1 (Homo sapiens, UniProt Q9HBX9)
T1 construct: OVCAR5 cells expressing endogenous RXFP1; endogenous in cells; host or cells: OVCAR5 cells
T1 sequence (Q9HBX9 1-757): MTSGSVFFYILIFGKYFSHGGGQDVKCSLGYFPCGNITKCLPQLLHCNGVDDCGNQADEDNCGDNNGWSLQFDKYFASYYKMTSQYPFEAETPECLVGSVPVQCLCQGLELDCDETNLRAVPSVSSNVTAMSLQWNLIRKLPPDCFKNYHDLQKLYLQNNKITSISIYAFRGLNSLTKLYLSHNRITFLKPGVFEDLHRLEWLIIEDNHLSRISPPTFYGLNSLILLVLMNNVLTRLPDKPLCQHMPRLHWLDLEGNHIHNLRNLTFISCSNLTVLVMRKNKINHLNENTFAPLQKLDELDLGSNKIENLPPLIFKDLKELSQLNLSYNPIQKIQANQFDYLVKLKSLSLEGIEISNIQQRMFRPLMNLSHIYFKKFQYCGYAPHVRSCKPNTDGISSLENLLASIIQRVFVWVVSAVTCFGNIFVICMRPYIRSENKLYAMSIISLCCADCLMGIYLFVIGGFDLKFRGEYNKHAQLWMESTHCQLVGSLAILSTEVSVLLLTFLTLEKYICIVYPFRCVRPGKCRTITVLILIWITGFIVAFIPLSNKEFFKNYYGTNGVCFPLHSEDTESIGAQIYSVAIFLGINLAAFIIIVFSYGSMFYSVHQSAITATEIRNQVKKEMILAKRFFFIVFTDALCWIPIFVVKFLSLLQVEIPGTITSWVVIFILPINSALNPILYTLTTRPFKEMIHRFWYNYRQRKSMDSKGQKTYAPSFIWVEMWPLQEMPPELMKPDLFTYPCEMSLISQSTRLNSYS
Assay: OVCAR5 cAMP assay (HTRF), RXFP1 agonist activity
Assay type: cell-based
Details: for Emax: OVCAR-5, maximal cAMP relative to H2-relaxin maximum (100%), read-out: EMax, OVCAR 5 cells (cAMP); for EC50: OVCAR5 cells, cAMP HTRF, read-out: EC50 (nM), OVCAR 5 cells (cAMP)
Method in brief: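 OVCAR5 cells (endogenous RXFP1) pretreated 40 min at 37° C with 1 mM IBMX, then exposed to peptides in serum-free medium for 30 min at 37° C. Lysate cAMP read by HTRF; EC50 from variable-slope sigmoidal fit; Emax as % of H2-relaxin maximal cAMP in same run.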

Structure (SMILES) | Emax | EC50
CCCCCCCCCCCCCCCCCC(=O)N[C@@H](CCC(=O)NCCOCCOCC(=O)NCCOCCOCC(=O)NCCCC[C@H](NC(=O)[C@H](CCCCN)NC(=O)[C@H](CCCNC(=N)N)NC(=O)C(C)(C)NC(=O)[C@H](CO)NC(=O)[C@H](Cc1c[nH]c2ccccc12)NC(=O)[C@@H](NC(=O)[C@H](CO)NC(=O)[C@H](CCCC)NC(=O)CNC(=O)[C@H](CCC(=O)O)NC(=O)C(C)(C)NC(=O)C(C)(C)NC(=O)[C@@H](NC(=O)[C@H](CCC(N)=O)NC(=O)[C@H](C)NC(=O)[C@H](CCCNC(=N)N)NC(=O)[C@@H](NC(=O)[C@H](CCCCN)NC(=O)[C@H](CCC(=O)O)NC(=O)[C@H](CCCNC(=N)N)NC(=O)CNC(=O)[C@H](CCC(=O)O)NC(=O)[C@H](CC(C)C)NC(C)=O)C(C)C)[C@@H](C)CC)[C@@H](C)O)C(N)=O)C(=O)O [compound 56] (Ac-LEGREKVRAQI[Aib][Aib]EG[Nle]STWS[Aib]RKK([AEEA-AEEA-γGlu-Stearoyl])-NH2) | 95% | 
CCCCCCCCCCCCCCCC(=O)N[C@@H](CCC(=O)N[C@@H](CCC(=O)NCCOCCOCC(=O)NCCOCCOCC(=O)NCCCC[C@H](NC(=O)[C@H](CCCCN)NC(=O)[C@H](CCCNC(=N)N)NC(=O)C(C)(C)NC(=O)[C@H](CO)NC(=O)[C@H](Cc1c[nH]c2ccccc12)NC(=O)[C@@H](NC(=O)[C@H](CO)NC(=O)[C@H](CCCC)NC(=O)CNC(=O)[C@H](CCC(=O)O)NC(=O)C(C)(C)NC(=O)C(C)(C)NC(=O)[C@@H](NC(=O)[C@H](C)NC(=O)[C@H](C)NC(=O)[C@H](CCCNC(=N)N)NC(=O)[C@@H](NC(=O)[C@H](CCCCN)NC(=O)[C@H](CCC(=O)O)NC(=O)[C@H](CCCNC(=N)N)NC(=O)CNC(=O)[C@H](CCC(=O)O)NC(=O)[C@H](CC(C)C)NC(=O)[C@H](CCC(=O)O)NC(C)=O)C(C)C)[C@@H](C)CC)[C@@H](C)O)C(N)=O)C(=O)O)C(=O)O [compound 57] (Ac-ELEGREKVRAAI[Aib][Aib]EG[Nle]STWS[Aib]RKK([AEEA-AEEA-γGlu-γGlu-Palmitoyl])-NH2) | 93% | 4.4 nM
CCCCCCCCCCCCCCCC(=O)N[C@@H](CCC(=O)N[C@@H](CCC(=O)N[C@@H](CCC(=O)NCCOCCOCC(=O)NCCOCCOCC(=O)NCCCC[C@H](NC(=O)[C@H](CCCCN)NC(=O)[C@H](CCCNC(=N)N)NC(=O)C(C)(C)NC(=O)[C@H](CO)NC(=O)[C@H](Cc1c[nH]c2ccccc12)NC(=O)[C@@H](NC(=O)[C@H](CO)NC(=O)[C@H](CCCC)NC(=O)CNC(=O)[C@H](CCC(=O)O)NC(=O)C(C)(C)NC(=O)C(C)(C)NC(=O)[C@@H](NC(=O)[C@H](CCCCNC(C)=O)NC(=O)[C@H](C)NC(=O)[C@H](CCCNC(=N)N)NC(=O)[C@@H](NC(=O)[C@H](CCCCN)NC(=O)[C@H](CCC(=O)O)NC(=O)[C@H](CCCNC(=N)N)NC(=O)CNC(=O)[C@H](CCC(=O)O)NC(=O)[C@H](CC(C)C)NC(C)=O)C(C)C)[C@@H](C)CC)[C@@H](C)O)C(N)=O)C(=O)O)C(=O)O)C(=O)O [compound 59] (Ac-LEGREKVRAK(Ac)I[Aib][Aib]EG[Nle]STWS[Aib]RKK([AEEA-AEEA-γGlu-γGlu-γGlu-Palmitoyl])-NH2) | 85% | 
CCCCCCCCCCCCCCCC(=O)N[C@@H](CCC(=O)N[C@@H](CCC(=O)N[C@@H](CCC(=O)NCCOCCOCC(=O)NCCOCCOCC(=O)NCCCC[C@H](NC(=O)[C@H](CCCCN)NC(=O)[C@H](CCCCN)NC(=O)[C@H](CCCNC(=N)N)NC(=O)C(C)(C)NC(=O)[C@H](CO)NC(=O)[C@H](Cc1c[nH]c2ccccc12)NC(=O)[C@@H](NC(=O)[C@H](CO)NC(=O)[C@H](CCCC)NC(=O)CNC(=O)[C@H](CCC(=O)O)NC(=O)C(C)(C)NC(=O)C(C)(C)NC(=O)[C@@H](NC(=O)[C@H](CCCCNC(C)=O)NC(=O)[C@H](C)NC(=O)[C@H](CCCNC(=N)N)NC(=O)[C@@H](NC(=O)[C@H](CCCCN)NC(=O)[C@H](CCC(=O)O)NC(=O)[C@H](CCCNC(=N)N)NC(=O)CNC(=O)[C@H](CCC(=O)O)NC(=O)[C@H](CC(C)C)NC(C)=O)C(C)C)[C@@H](C)CC)[C@@H](C)O)C(N)=O)C(=O)O)C(=O)O)C(=O)O [compound 60] (Ac-LEGREKVRAK(Ac)I[Aib][Aib]EG[Nle]STWS[Aib]RKKK([AEEA-AEEA-γGlu-γGlu-γGlu-Palmitoyl])-NH2) | 91% | 0.11 nM

Further lines, results first:

Emax | EC50 | Structure (SMILES)
93% | 0.17 nM | CCCCCCCCCCCCCCCC(=O)N[C@@H](CCC(=O)N[C@@H](CCC(=O)N[C@@H](CCC(=O)NCCOCCOCC(=O)NCCOCCOCC(=O)NCCCC[C@H](NC(=O)[C@H](CCCCN)NC(=O)[C@H](CCCCN)NC(=O)[C@H](CCCNC(=N)N)NC(=O)C(C)(C)NC(=O)[C@H](CO)NC(=O)[C@H](Cc1c[nH]c2ccccc12)NC(=O)[C@@H](NC(=O)[C@H](CO)NC(=O)[C@H](CCCCNC(C)=O)NC(=O)CNC(=O)[C@H](CCC(=O)O)NC(=O)C(C)(C)NC(=O)C(C)(C)NC(=O)[C@@H](NC(=O)[C@H](CCCCNC(C)=O)NC(=O)[C@H](C)NC(=O)[C@H](CCCNC(=N)N)NC(=O)[C@@H](NC(=O)[C@H](CCCCN)NC(=O)[C@H](CCC(=O)O)NC(=O)[C@H](CCCNC(=N)N)NC(=O)CNC(=O)[C@H](CCC(=O)O)NC(=O)[C@H](CC(C)C)NC(C)=O)C(C)C)[C@@H](C)CC)[C@@H](C)O)C(N)=O)C(=O)O)C(=O)O)C(=O)O [compound 61] (Ac-LEGREKVRAK(Ac)I[Aib][Aib]EGK(Ac)STWS[Aib]RKKK([AEEA-AEEA-γGlu-γGlu-γGlu-Palmitoyl])-NH2)
87% |  | CCCCCCCCCCCCCCCC(=O)N[C@@H](CCC(=O)N[C@@H](CCC(=O)N[C@@H](CCC(=O)NCCOCCOCC(=O)NCCOCCOCC(=O)NCCCC[C@H](NC(=O)[C@H](CCCCNC(C)=O)NC(=O)[C@H](CCCCN)NC(=O)[C@H](CCCNC(=N)N)NC(=O)C(C)(C)NC(=O)[C@H](CO)NC(=O)[C@H](Cc1c[nH]c2ccccc12)NC(=O)[C@@H](NC(=O)[C@H](CO)NC(=O)[C@H](CCCC)NC(=O)CNC(=O)[C@H](CCC(=O)O)NC(=O)C(C)(C)NC(=O)C(C)(C)NC(=O)[C@@H](NC(=O)[C@H](CCCCNC(C)=O)NC(=O)[C@H](C)NC(=O)[C@H](CCCNC(=N)N)NC(=O)[C@@H](NC(=O)[C@H](CCCCN)NC(=O)[C@H](CCC(=O)O)NC(=O)[C@H](CCCNC(=N)N)NC(=O)CNC(=O)[C@H](CCC(=O)O)NC(=O)[C@H](CC(C)C)NC(C)=O)C(C)C)[C@@H](C)CC)[C@@H](C)O)C(N)=O)C(=O)O)C(=O)O)C(=O)O [compound 62] (Ac-LEGREKVRAK(Ac)I[Aib][Aib]EG[Nle]STWS[Aib]RKK(Ac)K([AEEA-AEEA-γGlu-γGlu-γGlu-Palmitoyl])-NH2)
81% | 0.2 nM | CCCCCCCCCCCCCCCC(=O)N[C@@H](CCC(=O)N[C@@H](CCC(=O)N[C@@H](CCC(=O)NCCOCCOCC(=O)NCCOCCOCC(=O)NCCOCCOCC(=O)NCCOCCOCC(=O)NCCCC[C@H](NC(=O)[C@H](CCCCNC(C)=O)NC(=O)[C@H](CCCCN)NC(=O)[C@H](CCCNC(=N)N)NC(=O)C(C)(C)NC(=O)[C@H](CO)NC(=O)[C@H](Cc1c[nH]c2ccccc12)NC(=O)[C@@H](NC(=O)[C@H](CO)NC(=O)[C@H](CCCC)NC(=O)CNC(=O)[C@H](CCC(=O)O)NC(=O)C(C)(C)NC(=O)C(C)(C)NC(=O)[C@@H](NC(=O)[C@H](CCCCNC(C)=O)NC(=O)[C@H](C)NC(=O)[C@H](CCCNC(=N)N)NC(=O)[C@@H](NC(=O)[C@H](CCCCN)NC(=O)[C@H](CCC(=O)O)NC(=O)[C@H](CCCNC(=N)N)NC(=O)CNC(=O)[C@H](CCC(=O)O)NC(=O)[C@H](CC(C)C)NC(C)=O)C(C)C)[C@@H](C)CC)[C@@H](C)O)C(N)=O)C(=O)O)C(=O)O)C(=O)O [compound 64] (Ac-LEGREKVRAK(Ac)I[Aib][Aib]EG[Nle]STWS[Aib]RKK(Ac)K([AEEA-AEEA-AEEA-AEEA-γGlu-γGlu-γGlu-Palmitoyl])-NH2)
93% | 0.12 nM | CCCCCCCCCCCCCCCC(=O)N[C@@H](CCC(=O)N[C@@H](CCC(=O)N[C@@H](CCC(=O)N[C@@H](CCC(=O)NCCOCCOCC(=O)NCCOCCOCC(=O)NCCOCCOCC(=O)NCCCC[C@H](NC(=O)[C@H](CCCCNC(C)=O)NC(=O)[C@H](CCCCN)NC(=O)[C@H](CCCNC(=N)N)NC(=O)[C@](C)(CCCCN)NC(=O)[C@H](CO)NC(=O)[C@H](Cc1c[nH]c2ccccc12)NC(=O)[C@@H](NC(=O)[C@H](CO)NC(=O)[C@H](CCCC)NC(=O)CNC(=O)[C@H](CCC(=O)O)NC(=O)C(C)(C)NC(=O)C(C)(C)NC(=O)[C@@H](NC(=O)[C@H](CCCCNC(C)=O)NC(=O)[C@H](C)NC(=O)[C@H](CCCNC(=N)N)NC(=O)[C@@H](NC(=O)[C@H](CCCCN)NC(=O)[C@H](CCC(=O)O)NC(=O)[C@H](CCCNC(=N)N)NC(=O)CNC(=O)[C@H](CCC(=O)O)NC(=O)[C@H](CC(C)C)NC(C)=O)C(C)C)[C@@H](C)CC)[C@@H](C)O)C(N)=O)C(=O)O)C(=O)O)C(=O)O)C(=O)O [compound 65] (Ac-LEGREKVRAK(Ac)I[Aib][Aib]EG[Nle]STWS[αMeK]RKK(Ac)K([AEEA-AEEA-AEEA-γGlu-γGlu-γGlu-γGlu-Palmitoyl])-NH2)
